These results are taken from PubChem BioAssay AID1259408 (Genetic Toxicology Data Bank (GENE-TOX), 2018).

This data set deals with GENE-TOX genotoxicity assays, various organisms and cells. In words: GENE-TOX mutagenicity studies. The following applies: for call: Assay Type: In vivo carcinogenicity studies.
[1] abbreviates: Species/Cell Type: Drosophila melanogaster, Assay Type: Sex-linked recessive lethal gene mutation, Assay Code: SRL+, Evaluation Type: Evaluation A (Pre-1980).
Where [2] appears, read: Species/Cell Type: Salmonella typhimurium (one or more of the five standard strains: TA98, TA100, TA1535, TA1537, and TA1538), Assay Type: Histidine reverse gene mutation, Ames assay, Assay Code: SAL+*, Activation: With metabolic activation, Evaluation Type: Evaluation A (Pre-1980).
Where [3] appears, read: Species/Cell Type: Nonhuman, Assay Code: CCG+, Evaluation Type: Evaluation A (Pre-1980).
The mark [4] stands for this setting: Species/Cell Type: Syrian hamster embryo (SHE) cells, Assay Type: Cell transformation, clonal assay, Assay Code: CTCT, Evaluation Type: Evaluation A (Pre-1980).
The mark [5] stands for this setting: Species/Cell Type: Bacillus subtilis (H17 vs M45), Assay Type: Rec-assay, spot test, DNA effects (bacterial DNA repair), Assay Code: REW-, Evaluation Type: Evaluation A (Pre-1980).

SMILES strings stand for the structures. The source made the active and inactive calls. No rule for the calls is given here.

As for `C=Cc1ccccc1`, the mutagenic call runs as follows: (Species/Cell Type: Chinese hamster lung (V79) cells, Assay Type: Forward gene mutation at the HPRT or ouabain locus, Assay Code: V79-, Evaluation Type: Evaluation A (Pre-1980)) “inactive; negative”; under setting [1], “active; positive”; (Species/Cell Type: Human diploid fibroblasts, Assay Type: Unscheduled DNA synthesis (UDS) in vitro, DNA effects, Assay Code: UDH-*, Activation: With metabolic activation, Evaluation Type: Evaluation A (Pre-1980)) “inactive; negative”; (Species/Cell Type: Human lymphocytes or leukocytes, Assay Type: Chromosome aberrations in vivo, Assay Code: CY8+, Evaluation Type: Evaluation A (Pre-1980)) “active; positive”; (Species/Cell Type: Human lymphocytes, Assay Type: Micronucleus test in vitro, chromosome aberrations, Assay Code: MN7+, Evaluation Type: Evaluation A (Pre-1980)) “active; positive”; (Species/Cell Type: Human lymphocytes, Assay Type: Sister-chromatid exchange (SCE) in vitro, Assay Code: SCL+D, Dose Response: With dose response, Evaluation Type: Evaluation B (Post-1980)) “active; positive”. Further, the mutagenic call is “active; positive” (Species/Cell Type: Human lymphocytes, Assay Type: Sister-chromatid exchange (SCE) in vivo, Assay Code: SCY+, Evaluation Type: Evaluation B (Post-1980)); “active; positive” (Species/Cell Type: Human, Assay Type: Sister-chromatid exchange (SCE) in vitro, Assay Code: SC1+D, Dose Response: With dose response, Evaluation Type: Evaluation B (Post-1980)); “active; positive” (Species/Cell Type: Mammalian polychromatic erythrocytes, Assay Type: Micronucleus test, chromosome aberrations, Assay Code: MNT+, Evaluation Type: Evaluation B (Post-1980)); “active; positive” (Species/Cell Type: Nonhuman, Assay Type: Sister-chromatid exchange (SCE) in vivo, Assay Code: SC3+D, Dose Response: With dose response, Evaluation Type: Evaluation B (Post-1980)); “active; positive” (Species/Cell Type: Plant, Assay Type: Micronucleus test, chromosome aberrations, Assay Code: MNP+, Evaluation Type: Evaluation A (Pre-1980)); “active; positive” (Species/Cell Type: Saccharomyces cerevisiae, Assay Type: Forward and reverse gene mutation, mitotic recombination and gene conversion, host-mediated assay, Assay Code: HME+, Evaluation Type: Evaluation A (Pre-1980)). Also, the mutagenic call was “active; positive” (Species/Cell Type: Saccharomyces cerevisiae, Assay Type: Mitotic recombination or gene conversion, Assay Code: YEC+*, Activation: With metabolic activation, Evaluation Type: Evaluation A (Pre-1980)); “active; positive” under setting [2]; “no conclusion” (Species/Cell Type: Schizosaccharomyces pombe, Assay Type: Forward gene mutation, Assay Code: YEYT, Evaluation Type: Evaluation A (Pre-1980)); “inactive; negative” (Species/Cell Type: Syrian hamster embryo (SA7/SHE) cells, Assay Type: Cell transformation, viral enhanced, Assay Code: CT7-, Evaluation Type: Evaluation A (Pre-1980)). For the same compound, for the setting “Species/Cell Type: Nonhuman, Assay Code: CCG+L, Evaluation Type: Evaluation A (Pre-1980)”, the call was “active; positive”.
As for `Cc1ccc(N)cc1N`, the mutagenic call under setting [1] was “active; positive”; the mutagenic call (Species/Cell Type: Mouse, Sex: Male, Assay Type: Sperm morphology, Assay Code: SPI-, Evaluation Type: Evaluation A (Pre-1980)) is “inactive; negative”; the mutagenic call (Species/Cell Type: Neurospora crassa, Assay Type: Aneuploidy, chromosome aberrations, Assay Code: NEN-, Evaluation Type: Evaluation A (Pre-1980)) was “inactive; negative”; the mutagenic call (Species/Cell Type: Nonhuman, Assay Type: Sister-chromatid exchange (SCE) in vivo, Assay Code: SC3+, Evaluation Type: Evaluation B (Post-1980)) is “active; positive”; the mutagenic call under setting [2] is “active; positive”; the mutagenic call under setting [4] is listed as “no conclusion”. Further, the call under setting [3] was “active; positive”.
`N=c1ccc2nc3ccc(N)cc3sc-2c1`: the mutagenic call runs as follows: under setting [5], “inactive; negative”; (Species/Cell Type: Drosophila melanogaster, Assay Type: Sex-linked recessive lethal gene mutation, Assay Code: SRLT, Evaluation Type: Evaluation A (Pre-1980)) “no conclusion”; (Species/Cell Type: Saccharomyces cerevisiae, Assay Type: Mitotic recombination or gene conversion, Assay Code: YECT, Evaluation Type: Evaluation A (Pre-1980)) “no conclusion”.
With `CS(=O)(=O)OCCCOS(C)(=O)=O`, the mutagenic call by setting is: under setting [1], “active; positive”; (Species/Cell Type: Rat, Sex: Male, Assay Type: Sperm morphology, Assay Code: SPA+, Evaluation Type: Evaluation A (Pre-1980)) “active; positive”.
Regarding `CCOC(=O)CCCCC(=O)OCC`, under “Species/Cell Type: Rodents, Sex: Male, Assay Type: Dominant lethal test, Assay Code: DLT+, Evaluation Type: Evaluation A (Pre-1980)”, the mutagenic call is “active; positive”.
Consider `O[C@@H]1C=Cc2cc3ccc4cccc5ccc(c2[C@H]1O)c3c45`, for which the mutagenic call by setting is: (Species/Cell Type: Chinese hamster lung (V79) cells, Assay Type: Forward gene mutation at the HPRT or ouabain locus, Assay Code: V79-*, Activation: With metabolic activation, Evaluation Type: Evaluation A (Pre-1980)) “inactive; negative”; (Species/Cell Type: Nonhuman, Assay Type: Sister-chromatid exchange (SCE) in vitro, Assay Code: SC2+, Evaluation Type: Evaluation A (Pre-1980)) “active; positive”; (Species/Cell Type: Salmonella typhimurium (one or more of the five standard strains: TA98, TA100, TA1535, TA1537, and TA1538), Assay Type: Histidine reverse gene mutation, Ames assay, Assay Code: SALT, Evaluation Type: Evaluation A (Pre-1980)) “no conclusion”; under setting [4], “no conclusion”. Further, the call (Species/Cell Type: Nonhuman, Assay Code: CCGT, Evaluation Type: Evaluation A (Pre-1980)) was “no conclusion”.
With `O=CNc1nc(-c2ccc([N+](=O)[O-])o2)cs1`, the mutagenic call reads like this: (Species/Cell Type: Bacillus subtilis (H17 vs M45), Assay Type: Rec-assay, spot test, DNA effects (bacterial DNA repair), Assay Code: REW+, Evaluation Type: Evaluation A (Pre-1980)) “active; positive”; (Species/Cell Type: Escherichia coli WP2, Assay Type: Tryptophan reverse gene mutation, Assay Code: WP2+, Evaluation Type: Evaluation A (Pre-1980)) “active; positive”; (Species/Cell Type: Escherichia coli WP2 UVRA, Assay Type: Tryptophan reverse gene mutation, Assay Code: WPU+D, Dose Response: With dose response, Evaluation Type: Evaluation A (Pre-1980)) “active; positive”; (Species/Cell Type: Escherichia coli polA (W3119 vs P3478), Assay Type: Rec-assay, DNA effects (bacterial DNA repair), Assay Code: RE1+, Evaluation Type: Evaluation A (Pre-1980)) “active; positive”; (Species/Cell Type: Fischer rat embryo (RLV/1706) cells, Assay Type: Cell transformation, viral enhanced, Assay Code: CTR+, Evaluation Type: Evaluation A (Pre-1980)) “active; positive”; (Species/Cell Type: Mouse, Sex: Male, Assay Type: Sperm morphology, Assay Code: SPIT, Evaluation Type: Evaluation A (Pre-1980)) “no conclusion”. Moreover, the mutagenic call is “active; positive” (Species/Cell Type: Neurospora crassa, Assay Type: Forward gene mutation, Assay Code: NEF+, Evaluation Type: Evaluation A (Pre-1980)); “active; positive” (Species/Cell Type: Neurospora crassa, Assay Type: Reverse gene mutation, Assay Code: NER+, Evaluation Type: Evaluation A (Pre-1980)); “active; positive” (Species/Cell Type: Nonhuman, Assay Type: Sister-chromatid exchange (SCE) in vitro, Assay Code: SC2+D, Dose Response: With dose response, Evaluation Type: Evaluation B (Post-1980)); “active; positive” (Species/Cell Type: Saccharomyces cerevisiae, Assay Type: Mitotic recombination or gene conversion, Assay Code: YEC+, Evaluation Type: Evaluation A (Pre-1980)); “active; positive” (Species/Cell Type: Saccharomyces cerevisiae, Assay Type: Mitotic recombination or gene conversion, Assay Code: YEH+, Evaluation Type: Evaluation A (Pre-1980)); “active; positive” (Species/Cell Type: Salmonella typhimurium (one or more of the five standard strains: TA98, TA100, TA1535, TA1537, and TA1538), Assay Type: Histidine reverse gene mutation, Ames assay, Assay Code: SAL+, Evaluation Type: Evaluation A (Pre-1980)). For the same compound, the mutagenic call runs as follows: (Species/Cell Type: Salmonella typhimurium and Saccharomyces cerevisiae, Assay Type: Forward and reverse gene mutation, mitotic recombination and gene conversion, DNA effects, body fluid assay, Assay Code: BFG+, Evaluation Type: Evaluation A (Pre-1980)) “active; positive”; (Species/Cell Type: Salmonella typhimurium, Saccharomyces cerevisiae, Assay Type: Forward and reverse gene mutation, mitotic recombination and gene conversion, DNA effects, host-mediated assay, Assay Code: HM3+, Evaluation Type: Evaluation A (Pre-1980)) “active; positive”; (Species/Cell Type: Syrian hamster embryo (SHE) cells, Assay Type: Cell transformation, clonal assay, Assay Code: CTC+, Evaluation Type: Evaluation A (Pre-1980)) “active; positive”. Besides, the call under setting [3] was “active; positive”.
For `O=C1OC(c2ccc(O)cc2)(c2ccc(O)cc2)c2ccccc21`, the mutagenic call was “inactive; negative” under setting [5] and “no conclusion” (Species/Cell Type: Bacillus subtilis (H17 vs M45T), Assay Type: Rec-assay, spot test, DNA effects (bacterial DNA repair), Assay Code: REXT, Evaluation Type: Evaluation A (Pre-1980)).
On to `CCC1(c2ccccc2)CCC(=O)NC1=O` (stereo not given), for which the mutagenic call was “inactive; negative” (Species/Cell Type: Drosophila melanogaster, Assay Type: Aneuploidy, sex chromosome gain, chromosome aberrations, Assay Code: DAG-M, Evaluation Type: Evaluation A (Pre-1980)) and “inactive; negative” (Species/Cell Type: Drosophila melanogaster, Assay Type: Aneuploidy, whole sex chromosome loss, chromosome aberrations, Assay Code: DAC-M, Evaluation Type: Evaluation A (Pre-1980)).
